# Assay results published in patent publication US20140294956A1, “GASTRIC RETENTIVE EXTENDED RELEASE PHARMACEUTICAL COMPOSITIONS” (MALLINCKRODT LLC, priority 2011, published 2014).
# Experiment: Ethanol release testing at 100 rpm paddle speed (Example 32)
# Assay type: physicochemical
smiles,measurement,setting,value
CC(=O)Nc1ccc(O)cc1 [APAP],"Percent Release, Mean","0% Ethanol, 15 min",52.2%
same,"Percent Release, Mean","0% Ethanol, 30 min",54.6%
same,"Percent Release, Mean","0% Ethanol, 45 min",56.8%
same,"Percent Release, Mean","0% Ethanol, 60 min",58.8%
same,"Percent Release, Mean","0% Ethanol, 75 min",60.8%
same,"Percent Release, Mean","0% Ethanol, 90 min",62.6%
same,"Percent Release, Mean","0% Ethanol, 120 min",66.0%
same,"Percent Release, Mean","0% Ethanol, 240 min",78.6%
same,"Percent Release, Mean","0% Ethanol, 480 min",95.5%
same,"Percent Release, Mean","5% Ethanol, 15 min",52.6%
same,"Percent Release, Mean","5% Ethanol, 30 min",55.1%
same,"Percent Release, Mean","5% Ethanol, 45 min",57.1%
same,"Percent Release, Mean","5% Ethanol, 60 min",58.9%
same,"Percent Release, Mean","5% Ethanol, 75 min",60.7%
same,"Percent Release, Mean","5% Ethanol, 90 min",62.3%
same,"Percent Release, Mean","5% Ethanol, 120 min",65.5%
same,"Percent Release, Mean","5% Ethanol, 240 min",77.2%
same,"Percent Release, Mean","5% Ethanol, 480 min",94.4%
same,"Percent Release, Mean","10% Ethanol, 15 min",51.7%
same,"Percent Release, Mean","10% Ethanol, 30 min",54.1%
same,"Percent Release, Mean","10% Ethanol, 45 min",56.0%
same,"Percent Release, Mean","10% Ethanol, 60 min",57.8%
same,"Percent Release, Mean","10% Ethanol, 75 min",59.5%
same,"Percent Release, Mean","10% Ethanol, 90 min",61.1%
same,"Percent Release, Mean","10% Ethanol, 120 min",64.1%
same,"Percent Release, Mean","10% Ethanol, 240 min",75.5%
same,"Percent Release, Mean","10% Ethanol, 480 min",93.5%
same,"Percent Release, Mean","20% Ethanol, 15 min",50.2%
same,"Percent Release, Mean","20% Ethanol, 30 min",53.4%
same,"Percent Release, Mean","20% Ethanol, 45 min",55.5%
same,"Percent Release, Mean","20% Ethanol, 60 min",57.3%
same,"Percent Release, Mean","20% Ethanol, 75 min",59.0%
same,"Percent Release, Mean","20% Ethanol, 90 min",60.5%
same,"Percent Release, Mean","20% Ethanol, 120 min",63.3%
same,"Percent Release, Mean","20% Ethanol, 240 min",76.0%
same,"Percent Release, Mean","20% Ethanol, 480 min",91.9%
same,"Percent Release, Mean","40% Ethanol, 15 min",16.7%
same,"Percent Release, Mean","40% Ethanol, 30 min",30.4%
same,"Percent Release, Mean","40% Ethanol, 45 min",38.5%
same,"Percent Release, Mean","40% Ethanol, 60 min",43.1%
same,"Percent Release, Mean","40% Ethanol, 75 min",46.1%
same,"Percent Release, Mean","40% Ethanol, 90 min",48.3%
same,"Percent Release, Mean","40% Ethanol, 120 min",51.1%
same,"Percent Release, Mean","40% Ethanol, 240 min",60.8%
same,"Percent Release, Mean","40% Ethanol, 480 min",77.2%
